Target: T1, hDGAT1 (Homo sapiens, UniProt O75907)
T1 construct: host or cells: Sf9 insect cells (baculovirus); microsomal preparation
T1 sequence (O75907 1-488): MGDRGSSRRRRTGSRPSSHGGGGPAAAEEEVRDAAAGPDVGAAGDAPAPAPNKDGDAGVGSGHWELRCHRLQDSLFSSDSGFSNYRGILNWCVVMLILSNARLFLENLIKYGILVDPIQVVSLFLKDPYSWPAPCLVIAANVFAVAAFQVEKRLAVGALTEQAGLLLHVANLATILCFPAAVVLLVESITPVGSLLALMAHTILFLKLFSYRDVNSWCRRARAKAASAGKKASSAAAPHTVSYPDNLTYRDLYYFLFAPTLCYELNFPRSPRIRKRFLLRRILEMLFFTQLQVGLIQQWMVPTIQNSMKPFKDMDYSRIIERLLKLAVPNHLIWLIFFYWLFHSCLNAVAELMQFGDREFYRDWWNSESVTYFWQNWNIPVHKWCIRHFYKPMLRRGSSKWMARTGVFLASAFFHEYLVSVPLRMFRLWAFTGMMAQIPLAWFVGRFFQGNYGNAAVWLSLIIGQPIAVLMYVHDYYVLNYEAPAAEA
Experiment: In-vitro DGAT1 assay (hDGAT1 microsomes from Sf9 cells, 14C oleoyl CoA, triglyceride formation)
Format: biochemical
Summary of the method: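 Compounds tested in duplicate at 10, 5 and 1 μM for 10 min at 37 °C. Reaction: Sf9-expressed hDGAT1 microsomes (2.5–10 μg), [14C]oleoyl-CoA plus 409.5–1638 μM dioleoylglycerol, pH 7.4 Tris-HCl with fatty-acid-free BSA. Radiolabelled triglyceride extracted into heptane and scintillation-counted.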

## CC(C)[C@H](NC(=S)c1cc(-c2cccc(Nc3nc4ccc(F)cc4s3)c2)no1)C(=O)O [Example 25, (S)-2-({3-[3-(6-Fluoro-benzothiazol-2-ylamino)-phenyl]-isoxazole-5-carbothioyl}-amino)-3-methyl-butyric acid]
  inhibition at 10 µM: 0 to 50%

## COC(=O)C(NC(=O)c1cc(-c2ccc(NC(=O)Nc3ccccc3F)cc2)no1)C(C)C (stereo not shown) [Example 105, 2-[(3-{4-[3-(2-Fluoro-phenyl)ureido]-phenyl}-isoxazole-5-carbonyl)-amino]-3-methyl-butyric acid methyl ester]
  inhibition at 10 µM: 50 to 75%

## CC(C)[C@H](NC(=O)c1csc(-c2ccc(NC(=O)Nc3cccc(C(F)(F)F)c3)cc2)n1)C(=O)O [Example 367, (S)-3-Methyl-2-(2-(4-(3-(3-(trifluoromethyl)phenyl)ureido)phenyl)thiazole-4-carboxamido)butanoic acid]
At 1 μM
  inhibition at 1 µM: 0 to 50%

## COC(=O)C(CC(C)C)NC(=O)c1cc(-c2ccc(NC(=O)NCc3ccccc3)cc2)no1 (stereo not shown) [Example 109, Methyl 2-(3-(4-(3-benzylureido)phenyl)isoxazole-5-carboxamido)-4-methylpentanoate]
  inhibition at 10 µM: 0 to 50%

## CC(C)[C@H](NC(=O)c1cc(-c2ccc(NC(=O)Nc3ccccc3)cc2)no1)C(=O)O [Example 77, (S)-3-Methyl-2-({3-[4-(3-phenyl-ureido)-phenyl]-isoxazole-5-carbonyl}-amino)-butyric acid]
  inhibition at 10 µM: 75 to 100%

## Cc1ccc(NC(=O)Nc2ccc(-c3noc(C(=O)N[C@H](C(=O)O)C(C)C)n3)cc2)cc1 [Example 347, (S)-3-Methyl-2-(3-(4-(3-p-tolylureido)phenyl)-1,2,4-oxadiazole-5-carboxamido)butanoic acid]
  inhibition at 5 µM: 50 to 75%

## Cc1cc(OC(F)(F)F)ccc1NC(=O)Nc1ccc(-c2cc(C(=O)NC(C(=O)O)C(C)C)on2)cc1 (stereo not shown) [Example 295, 3-methyl-2-(3-(4-(3-(2-methyl-4-(trifluoromethoxy)phenyl)ureido)phenyl)isoxazole-5-carboxamido)butanoic acid]
At 1 μM
  inhibition at 1 µM: 75 to 100%

## Cc1ccc(NC(=O)Nc2ccc(-c3cc(C(=O)N[C@@H](Cc4ccc(O)cc4)C(=O)O)on3)cc2)cc1 [Example 273, (S)-3-(4-Hydroxyphenyl)-2-(3-(4-(3-p-tolylureido)phenyl)isoxazole-5-carboxamido)propanoic acid]
  inhibition at 5 µM: 50 to 75%

## CC(C)c1ccc(NC(=O)Nc2ccc(-c3cc(C(=O)N[C@H](C(=O)O)C(C)C)on3)cc2)cc1 [Example 228, (S)-2-(3-(4-(3-(4-Isopropylphenyl)ureido)phenyl)isoxazole-5-carboxamido)-3-methylbutanoic acid]
At 1 μM
  inhibition at 1 µM: 75 to 100%

## CC(C)C(NC(=O)c1cc(-c2ccc(NC(=O)Nc3ccccn3)cc2)no1)C(=O)O (stereo not shown) [Example 280, 3-methyl-2-(3-(4-(3-pyridin-2-ylureido)phenyl)isoxazole-5-carboxamido)butanoic acid]
  inhibition at 5 µM: 50 to 75%

## O=C(O)c1cc(-c2cccc(Nc3nc4ccc(F)cc4s3)c2)no1 [Example 21, 3-[3-(6-Fluoro-benzothiazol-2-ylamino)-phenyl]-isoxazole-5-carboxylic acid]
  inhibition at 10 µM: 0 to 50%

## COC(=O)[C@@H](NC(=NO)c1cc(-c2ccc(Nc3nc4ccc(F)cc4s3)cc2)no1)c1ccccc1 [Example 56, (S)-({3-[4-(6-Fluoro-benzothiazol-2-ylamino)-phenyl]-N-hydroxy-isoxazole-5-carboximidoyl}-amino)-phenyl-acetic acid methyl ester]
  inhibition at 10 µM: 0 to 50%

## CC(C)C(NC(=O)c1cc(-c2ccc(OCc3cccc(C(F)(F)F)c3)cc2)no1)C(=O)O (stereo not shown) [Example 326, 3-Methyl-2-(3-(4-(3-(trifluoromethyl)benzyloxy)phenyl)isoxazole-5-carboxamido)butanoic acid]
At 1 μM
  inhibition at 1 µM: 0 to 50%

## Cc1ccc(Cl)cc1NC(=O)Nc1ccc(-c2cc(C(=O)N[C@H](C(=O)O)C(C)C)on2)cc1 [Example 195, (S)-2-(3-(4-(3-(5-chloro-2-methylphenyl)ureido)phenyl)isoxazole-5-carboxamido)-3-methylbutanoic acid]
At 1 μM
  inhibition at 1 µM: 75 to 100%

## COC(=O)[C@@H]1CCCN1C(=O)c1cc(-c2ccc(Nc3nc4ccc(F)cc4s3)cc2)no1 [Example 18, (S)-1-{3-[4-(6-Fluoro-benzothiazol-2-ylamino)-phenyl]-isoxazole-5-carbonyl}-pyrrolidine-2-carboxylic acid methyl ester]
  inhibition at 10 µM: 50 to 75%

## C=C(NC(=O)c1cc(-c2ccc(NC(=O)Nc3ccc(C)cc3)cc2)no1)C(=O)OC [Example 303, Methyl 2-(3-(4-(3-p-tolylureido)phenyl)isoxazole-5-carboxamido) acrylate]
At 1 μM
  % inhibition of hDGAT1: + (>0% Inhibition ≦50)

## CC(C)[C@@H](NC(=O)c1cc(-c2ccc(Nc3nc4ccc(F)cc4s3)cc2)no1)C(=O)O [Example 42, (R)-2-({3-[4-(6-Fluoro-benzothiazol-2-ylamino)-phenyl]-isoxazole-5-carbonyl}-amino)-3-methyl-butyric acid]
  inhibition at 10 µM: 50 to 75%

## CC(C)C(NC(=O)c1cc(-c2ccc(NC(=O)Nc3ccc(F)cc3F)cc2)no1)C(=O)O (stereo not shown) [Example 112, 2-(3-(4-(3-(2,4-Difluorophenyl)ureido)phenyl)isoxazole-5-carboxamido)-3-methylbutanoic acid]
  inhibition at 10 µM: 75 to 100%

## O=C(Nc1ccc(-c2cc(C(=O)N3CCC[C@@H]3C(=O)O)on2)cc1)Nc1ccccc1F [Example 260, (R)-1-(3-(4-(3-(2-Fluorophenyl)ureido)phenyl)isoxazole-5-carbonyl) pyrrolidine-2-carboxylic acid]
At 1 μM
  inhibition at 1 µM: 50 to 75%

## CC(C)[C@H](NC(=NO)c1cc(-c2ccc(Nc3nc4ccc(F)cc4s3)cc2)no1)C(=O)O [Example 8, (S)-2-({3-[4-(6-Fluoro-benzothiazol-2-ylamino)-phenyl]-N-hydroxy-isoxazole-5-carboximidoyl}-amino)-3-methyl-butyric acid]
  inhibition at 10 µM: 50 to 75%

## CC(C)C(NC(=O)c1cc(-c2ccc(OCc3ccccc3C(F)(F)F)cc2)no1)C(=O)O (stereo not shown) [Example 330, 3-Methyl-2-(3-(4-(2-(trifluoromethyl)benzyloxy)phenyl)isoxazole-5-carboxamido)butanoic acid]
At 1 μM
  inhibition at 1 µM: 0 to 50%

## CC(C)C(NC(=O)c1cc(-c2ccc(NC(=O)Nc3c(F)cccc3F)cc2)no1)C(=O)O (stereo not shown) [Example 124, 2-(3-(4-(3-(2,6-difluorophenyl)ureido)phenyl)isoxazole-5-carboxamido)-3-methylbutanoic acid]
  inhibition at 10 µM: 75 to 100%

## CC(C)[C@H](NC(=O)c1cc(-c2ccc(NC(=S)Nc3cccc(F)c3)cc2)no1)C(=O)O [Example 268, (S)-2-(3-(4-(3-(3-fluorophenyl)thioureido)phenyl)isoxazole-5-carboxamido)-3-methylbutanoic acid]
  inhibition at 5 µM: 50 to 75%

## CCOC(=O)c1cc(-c2ccc(Nc3nc4ccc(F)cc4s3)cc2)no1 [Example 1, 3-[4-(6-Fluoro-benzothiazol-2-ylamino)-phenyl]-isoxazole-5-carboxylic acid ethyl ester]
  inhibition at 10 µM: 50 to 75%

## COc1ccc(NC(=O)Nc2ccc(-c3noc(C(=O)N[C@H](C(=O)O)C(C)C)n3)cc2)cc1 [Example 345, (S)-2-(3-(4-(3-(4-methoxyphenyl)ureido)phenyl)-1,2,4-oxadiazole-5-carboxamido)-3-methylbutanoic acid]
  inhibition at 5 µM: 50 to 75%
